Columns and labels:
[1] = tested on: AY-12 strain (membrane-type arming yeast); assay: GFP releasing effect of available antifungal agents, membrane-type arming yeast; format: cell-based, S. cerevisiae; settings: RPMIB medium protected for osmotic pressure
Experimental: (§1) The cultured yeast cells in the logarithmic growth phase (AY-2 strain or AY-12 strain) were collected, and various agents were allowed to act on the yeast cells. Fluorescence intensity of the culture supernatant was measured by using Cytofluor 2300 Fluorometer (Millipore, excitation=480 nm, emission=530 nm). The fluorescence intensity under treatment with each of various agents was shown in terms of a difference in fluorescence intensity compared with that of a control in which no agent was added.
(§2) In order to ascertain whether or not the aforementioned method can be utilized for a screening of agents with a targeting site other than Kre6p, the GFP releasing effects in the AY-2 strain (wall-type arming yeast) and the AY-12 strain (membrane-type arming yeast) were compared under actions of available antifungal agents. The AY-2 strain cells and the AY-12 strain cells each cultured in a test tube were suspended with a medium (RPMIB) protected for osmotic pressure, and each of the agents was allowed to act on the cells. After the culture, the fluorescence intensity of the supernatant was measured, and a difference from that of a control with no addition of the agent was calculated.

[2] = tested on: AY-2 strain (wall-type arming yeast); assay: GFP releasing effect of available antifungal agents, wall-type arming yeast; format: cell-based, S. cerevisiae; settings: RPMIB medium protected for osmotic pressure
Experimental: as §1, §2

AY-14 strain [3] = assay: GFP release by cell wall synthesis inhibitors; format: cell-based, Saccharomyces cerevisiae; settings: each agent alone
Text: As agents confirmed to have a yeast cell wall synthesis inhibitory action, tunicamycin (TM, Funakoshi, Tokyo), aculeacin A (AC, Wako Pure Chemical Industries, Osaka) and staurosporine (SP, Boehringer Mannheim, Tokyo) were used. The AY-14 strain was used as a microorganism.
Thus, it is evident that inhibitors for the (1,3)-β-glucan synthesis pathway, N-type saccharide chain synthesis pathway, saccharide chain (glucan) synthesis regulatory pathway and the like can also be screened.

AY-14 strain [4] = assay: Molecular weight of released GFP by Western blotting after agent treatment; format: cell-based, Saccharomyces cerevisiae; settings: agent alone
Experimental: Cells at the logarithmic growth phase were collected after inoculation to the liquid medium and culture at 30° C., and suspended in a fresh medium of the same type to prepare a cell suspension for inoculation. The cells were cultured at 30° C. Fluorescence intensity of the culture supernatant was measured (excitation=480 nm, emission=530 nm) by using ARVO sx (Wallac, Tokyo). The GFP releasing effect of the gene-disrupted strains was represented in terms of a difference with that of a non-gene-disrupted strain (AY-10u strain or AY12u strain). After the measurement of fluorescence intensity, the culture supernatants were concentrated by ultrafiltration. The concentrated supernatants were subjected to separation by SDS-PAGE and blotted on a PVDF membrane, and GFP was detected by using commercially available anti-GFP antibodies (rabbit IgG, Santa Cruz Biotechnology) to compare the molecular weights (Western blotting).
As agents confirmed to have a yeast cell wall synthesis inhibitory action, tunicamycin (TM, Funakoshi, Tokyo), aculeacin A (AC, Wako Pure Chemical Industries, Osaka) and staurosporine (SP, Boehringer Mannheim, Tokyo) were used. The AY-14 strain was used as a microorganism. […]

Row | Molecule | GFP releasing effect (fluorescence intensity of culture supernatant, difference from control with no agent) [1] | GFP releasing effect (fluorescence intensity of culture supernatant, difference from control with no agent) [2] | release of GFP (AY-14 strain [3]) | molecular weight of released GFP compared with that in the absence of agent (AY-14 strain [4])
1 | CC[C@@H](C(=O)[C@@H](C)[C@@H](O)[C@H](C)[C@@H]1O[C@@H]([C@@H](CC)C(=O)O)CC[C@@H]1C)[C@H]1O[C@]2(C=C[C@@H](O)[C@]3(CC[C@@](C)([C@H]4CC[C@](O)(CC)[C@H](C)O4)O3)O2)[C@H](C)C[C@@H]1C [Salinomycin] | Slight releasing effect | Slight releasing effect | – | –
2 | Aculeacin A | almost no releasing effect | Marked GFP releasing effect | release of GFP was observed | –
3 | CN[C@@H]1C[C@H]2O[C@@](C)([C@@H]1OC)n1c3ccccc3c3c4c(c5c6ccccc6n2c5c31)C(=O)NC4 [SP, staurosporine] | – | – | release of GFP was observed | –
4 | C[C@@H]1[C@H](O)[C@@H](C)/C=C/C=C/C=C/C=C/C=C/C=C/C=C/[C@H](O[C@@H]2O[C@H](C)[C@@H](O)[C@H](N)[C@@H]2O)C[C@@H]2O[C@](O)(C[C@@H](O)C[C@@H](O)[C@H](O)CC[C@@H](O)C[C@@H](O)CC(=O)O[C@H]1C)C[C@H](O)[C@H]2C(=O)O [Amphotericin B] | Slight releasing effect | Slight releasing effect | – | –
5 | OC(Cn1cncn1)(Cn1cncn1)c1ccc(F)cc1F [Fluconazole] | Slight releasing effect | Slight releasing effect | – | –
6 | Tunicamycin | almost no releasing effect | Marked GFP releasing effect | release of GFP was observed | markedly lowered
